This passage reports MIC results from ChEMBL document CHEMBL5512659, “Structure optimizing of flavonoids against both MRSA and VRE” (Eur J Med Chem, 2024).

Values after ≈ are worked out from the molar mass of the structure shown.

One assay relates to Enterococcus faecalis. Description: Antibacterial activity against multidrug resistant Enterococcus faecalis ATCC 51299. Format: functional.
The next assay has as its system Staphylococcus aureus. Put plainly: Antibacterial activity against methicillin resistant Staphylococcus aureus clinical isolate 003. The assay is classed as functional.

Consider `COc1ccc(-c2cc(=O)c3c(OC)cc(OC)cc3o2)c(OC)c1`, for which the MIC with Enterococcus faecalis and with Staphylococcus aureus was over 64 µg/mL throughout.

As to `CCCCCCc1c(-c2ccc(O)cc2O)oc2cc(O)cc(O)c2c1=O`, the MIC against Enterococcus faecalis stood at 16 µg/mL (≈ 43.2 µM); against Staphylococcus aureus, 8 µg/mL (≈ 21.6 µM).

Regarding `CCCc1c(-c2ccc(OC)cc2OC)oc2cc(OC)cc(OC)c2c1=O`, the MIC against Enterococcus faecalis and with Staphylococcus aureus was over 64 µg/mL throughout.

In the case of `CC(C)=CCc1c(O)ccc(C(=O)[C@@H]2[C@@H](c3ccc(O)cc3O)CC(C)=C[C@H]2c2c(O)cc(O)c3c(=O)c(CC=C(C)C)c(-c4ccc(O)cc4O)oc23)c1O`, the MIC with Enterococcus faecalis is 5 µg/mL (≈ 6.57 µM); against Staphylococcus aureus, 2.5 µg/mL (≈ 3.29 µM).

Regarding `CCCCCCCCCCCCc1c(-c2ccc(O)cc2O)oc2cc(O)cc(O)c2c1=O`, the MIC was found to be 64 µg/mL (≈ 141 µM) with Enterococcus faecalis and 32 µg/mL (≈ 70.4 µM) against Staphylococcus aureus.

Turning to `CCCCCCCCc1c(-c2ccc(O)cc2O)oc2cc(OC)cc(O)c2c1=O`, the MIC is 16 µg/mL (≈ 38.8 µM) against Enterococcus faecalis and 8 µg/mL (≈ 19.4 µM) in the assay with Staphylococcus aureus.

For the compound `CCCCCCCCCCc1c(-c2ccc(OC)cc2OC)oc2cc(OC)cc(OC)c2c1=O`, the minimal inhibitory concentration (MIC) against Enterococcus faecalis and against Staphylococcus aureus was over 64 µg/mL throughout.

Regarding `CCCCCc1c(-c2ccc(O)cc2O)oc2cc(O)cc(O)c2c1=O`, the minimum inhibitory concentration (MIC) with Enterococcus faecalis and against Staphylococcus aureus was 16 µg/mL (≈ 44.9 µM) in each case.

For `CC(C)=CCCc1c(-c2ccc(O)cc2O)oc2cc(O)cc(O)c2c1=O`, the MIC with Enterococcus faecalis and against Staphylococcus aureus was 32 µg/mL (≈ 86.9 µM) each time.

For the compound `CC(C)=CCc1c(-c2ccc(O)c3c2OC(C)(C)C=C3)oc2cc(O)cc(O)c2c1=O` [KUWANON A], the MIC against Enterococcus faecalis was 10 µg/mL (≈ 23.8 µM); in the assay on Staphylococcus aureus, 5 µg/mL (≈ 11.9 µM).

As for `COc1ccc(-c2oc3cc(OC)cc(OC)c3c(=O)c2CCC/C=C(\C)CCC=C(C)C)c(OC)c1`, the MIC with Enterococcus faecalis and against Staphylococcus aureus was over 64 µg/mL in each case.

In the case of `COc1cc(O)c2c(=O)c(CCC=C(C)C)c(-c3ccc(O)cc3O)oc2c1`, the minimum inhibitory concentration (MIC) in the assay on Enterococcus faecalis was 32 µg/mL (≈ 83.7 µM); against Staphylococcus aureus, 16 µg/mL (≈ 41.8 µM).

For `CC(C)=CCc1c(-c2ccc(O)cc2O)oc2c3c(cc(O)c2c1=O)OC(C)(C)C=C3` [MORUSIN], the MIC against Enterococcus faecalis and with Staphylococcus aureus was 5 µg/mL (≈ 11.9 µM) throughout.

As for `CCCCCCCCCCCCCCCCc1c(-c2ccc(OC)cc2OC)oc2cc(OC)cc(OC)c2c1=O`, the MIC against Enterococcus faecalis and in the assay on Staphylococcus aureus was over 64 µg/mL each time.

Take `CCCCCCCCCCCCCCCCc1c(-c2ccc(O)cc2O)oc2cc(O)cc(O)c2c1=O`: the MIC against Enterococcus faecalis and with Staphylococcus aureus was over 64 µg/mL in each case.

As to `CCCCCCCCCCCCCCCCc1c(-c2ccc(O)cc2O)oc2cc(OC)cc(O)c2c1=O`, the minimal inhibitory concentration (MIC) in the assay with Enterococcus faecalis turned out to be 64 µg/mL (≈ 122 µM); in the assay on Staphylococcus aureus, 32 µg/mL (≈ 61 µM).

As to `CCCCc1c(-c2ccc(O)cc2O)oc2cc(OC)cc(O)c2c1=O`, the MIC is 32 µg/mL (≈ 89.8 µM) with Enterococcus faecalis and 16 µg/mL (≈ 44.9 µM) in the assay with Staphylococcus aureus.

In the case of `CCCCc1c(-c2ccc(OC)cc2OC)oc2cc(OC)cc(OC)c2c1=O`, the MIC against Enterococcus faecalis and in the assay on Staphylococcus aureus was over 64 µg/mL each time.

Regarding `CCc1c(-c2ccc(O)cc2O)oc2cc(O)cc(O)c2c1=O`, the minimum inhibitory concentration (MIC) against Enterococcus faecalis and against Staphylococcus aureus was over 64 µg/mL each time.

`CC(C)=CCc1c(-c2ccc(O)cc2O)oc2c([C@H]3C=C(C)C[C@@H](c4ccc(O)cc4O)[C@@H]3C(=O)c3ccc(O)cc3O)c(O)cc(O)c2c1=O` [KUMANON G]: the MIC in the assay with Enterococcus faecalis and against Staphylococcus aureus was 5 µg/mL (≈ 7.22 µM) throughout.

For the compound `C=CCc1c(-c2ccc(OC)cc2OC)oc2cc(OC)cc(OC)c2c1=O`, the MIC with Enterococcus faecalis and in the assay with Staphylococcus aureus was over 64 µg/mL each time.

Regarding `CCCCCCCCc1c(-c2ccc(O)cc2O)oc2cc(O)cc(O)c2c1=O`, the MIC against Enterococcus faecalis and in the assay with Staphylococcus aureus was 16 µg/mL (≈ 40.2 µM) each time.

Turning to `CC(C)=CCc1c(-c2ccc(O)cc2O)oc2c(CC=C(C)C)c(O)cc(O)c2c1=O` [KUWANON C], the MIC against Enterococcus faecalis was determined as 10 µg/mL (≈ 23.7 µM); in the assay on Staphylococcus aureus, 5 µg/mL (≈ 11.8 µM).

As for `CCCCCCCCCCc1c(-c2ccc(O)cc2O)oc2cc(O)cc(O)c2c1=O`, the MIC against Enterococcus faecalis was found to be 32 µg/mL (≈ 75 µM); in the assay on Staphylococcus aureus it was 16 µg/mL (≈ 37.5 µM).

Take `CC(C)=CCC/C(C)=C/CCCc1c(-c2ccc(O)cc2O)oc2cc(O)cc(O)c2c1=O`: the MIC against Enterococcus faecalis is over 64 µg/mL; against Staphylococcus aureus, 32 µg/mL (≈ 71 µM).

One may read the MIC as the lowest concentration found to suppress growth. Read a low MIC as greater potency.
